Results reported in EP2752414A1, “Crystalline form of apixaban” (Sandoz AG, priority 2013, dated 2014).
Values after ≈ are worked out from the molar mass of the structure shown.

Key:
[1] = Equilibrium solubility, shake flask method (European Pharmacopeia); format: physicochemical; conditions: for Equilibrium solubility / solubility thermodynamic at 24 h: shaking at 400 rpm for 24 hours; for solubility thermodynamic at 24 h: aqueous buffer, 37 °C, thermodynamic from solid
Description: As used herein, the term "equilibrium solubility" refers to the maximum solubility of apixaban in various aqueous media of buffers of pH 1.2, 4.5 and 6.8 at 37 °C after 24 hours. The shaking is carried out at 400 rpm.
(§1) Equilibrium solubility of crystalline polymorphic Form A of apixaban and references apixaban Form N-1 was performed in various aqueous media of buffers of pH 1.2, 4.5 and 6.8 at 37°C. The solubility was measured using "shake flask" method described in European Pharmacopeia. The shaking was carried out at 400 RMP for 24 hours. Table 2: Equilibrium solubility of crystalline polymorphic Form A of apixaban and reference apixaban Form N-1 in various aqueous media of buffers.
as §1, with “rmp” for “RMP”

[2] = Physical stability of the crystalline form on storage at room atmosphere conditions; format: physicochemical; conditions: after 8 months stored at room atmosphere conditions
Source text: For a pharmaceutical use a solubility of the form which active pharmaceutical ingredient forms is a criterion of exceptional importance under certain circumstances depending on the choice of formulation or the choice of manufacturing process. For drugs which are to be taken orally it is, in general, very important that active pharmaceutical ingredients are sufficiently soluble and bioavailable. Apixaban is such a drug, i.e. characterized by a low solubility in aqueous media. Unexpectedly, improved solubility of crystalline polymorph Form A of apixaban contributes to sufficient bioavailability of apixaban containing drugs. At the same time, a high physical stability of crystalline Form A is preserved.

Row | Equilibrium solubility ([1]; aqueous buffer pH 1.2, 37°C) [µg/mL] | Equilibrium solubility ([1]; aqueous buffer pH 4.5, 37°C) [µg/mL] | Equilibrium solubility ([1]; aqueous buffer pH 6.8, 37°C) [µg/mL] | comparison of equilibrium solubility with reference polymorph Form N-1 ([1]; aqueous buffers pH 1.2, 4.5 and 6.8, 37°C (Table 2)) | solubility thermodynamic at 24 h ([1]; pH 1.2, simulated gastric fluid, aqueous buffer pH 1.2, 37°C) [µg/mL] | solubility thermodynamic at 24 h ([1]; pH 4.5, aqueous buffer, aqueous buffer pH 4.5, 37°C) [µg/mL] | Structure (SMILES) | physical stability (crystalline structure) [2]
1 | 58 | 74 | 72 | higher solubility | – | – | COc1ccc(-n2nc(C(N)=O)c3c2C(=O)N(c2ccc(N4CCCCC4=O)cc2)CC3)cc1 [Form A, 1-(4-methoxyphenyl)-7-oxo-6-(4-(2-oxopiperidin-1-yl)phenyl)-4,5,6,7-tetrahydro-1H-pyrazolo[3,4-c]pyridine-3-carboxamide] | the crystalline structure remains unchanged
2 | – | – | 30 | – | 44 (≈ 95.8 µM) | 53 (≈ 115 µM) | COc1ccc(-n2nc(C(N)=O)c3c2C(=O)N(c2ccc(N4CCCCC4=O)cc2)CC3)cc1 [Form N-1, 1-(4-methoxyphenyl)-7-oxo-6-(4-(2-oxopiperidin-1-yl)phenyl)-4,5,6,7-tetrahydro-1H-pyrazolo[3,4-c]pyridine-3-carboxamide, reference compound] | –
